Read-outs that look alike come from different tables or passages of the source.
Test system: Candida albicans (ATCC 10231)
Assay: Antimicrobial efficacy (stand-alone log reduction), C. albicans
Format: cell-based
Details: for log reduction at 4 ppm / log reduction at 4 µg/mL: Candida albicans; for log reduction at 4 µg/mL: 4.0 ppm alexidine in ReNu MPS; for Log Reduction C. albicans: PAPB 0.0
Protocol: This Example illustrates the microbiocidal efficacy of solutions according to the present invention. The antimicrobial efficacy of each of various compositions for the chemical disinfection of contact lenses was evaluated. Microbial challenge inoculums were prepared using Pseudomonas aeruginosa (ATCC 9027), Staphylococcus aureus (ATCC 6538), Serratia marcescens (ATCC 13880), Candida albicans (ATCC 10231), and Fusarium solani (ATCC 36031). The test organisms were cultured on appropriate agar and the cultures were harvested using sterile DPBST (Dulbecco's Phosphate Buffered Saline plus 0.05% w/v polysorbate 80) or a suitable diluent and transferred to a suitable vessel. Spore suspensions were filtered through sterile glass wool to remove hyphal fragments. Serratia marcescens, as appropriate, was filtered (eg., through a 1.2 μ filter) to clarify the suspension. After harvesting, the suspension was centrifuged at no more than 5000× g for a maximum of 30 minutes at 20-25° C. The supernatant was poured off and resuspended in DPBST or other suitable diluent. The suspension was centrifuged a second time, and resuspended in DPBST or other suitable diluent. All challenge bacterial and fungal cell suspensions were adjusted with DPBST or other suitable diluent to 1×10^7 -10^8 cfu/mL. The appropriate cell concentration may be estimated by measuring the turbidity of the suspension, for example using a spectrophotometer at a preselected wavelength, for example 490 nm. One tube was prepared containing a minimum of 10 mL of test solution per challenge organism. Each tube of the solution to be tested was inoculated with a suspension of the test organism sufficient to provide a final count of 1.0×10^5 -10^6 cfu/mL, the volume of the inoculum not exceeding 1% of the sample volume. Dispersion of the inoculum was ensured by vortexing the sample for at least 15 seconds. The inoculated product was stored at 10-25° C. Aliquots in the amount of 1.0 mL were taken of the inoculated product for determination of viable counts after certain time periods of disinfection. The time points for the bacteria were 25, 50, 75, and 100% of the minimum disinfection time. Yeast and mold were tested at an additional timepoint of at least 400% of the minimum disinfection time. The suspension was mixed well by vortexing vigorously for at least 5 second. The 1.0 mL aliquots removed at the specified time intervals were subjected to a suitable series of decimal dilutions in validated neutralizing media. The suspensions were mixed vigorously and incubated for a suitable period of time to allow for neutralization of the microbial agent. The viable count of organisms was determined in appropriate dilutions by preparation of triplicate plates of trypticase soy (TSA) agar for bacteria and Sabouraud dextrose agar (SDA) for mold and yeast. The bacterial recovery plates were incubated at 30-35° C. for 2-4 days. The yeast was incubated at 20-30° C. for 2-4 days and mold recovery plates at 20-25° C. for 3-7 days. The average number of colony forming units was determined on countable plates. Countable plates refer to 30-300 cfu/plates for bacteria and yeast, and 8 to 80 cfu/plate for mold except when colonies are observed only for the 10^0 or 10^-1 dilution plates. The microbial reduction was then calculated at the specified time points. […] Following inoculation in a validated neutralizing broth and incubation for an appropriate period of time, the inoculum control must be between 1.0×10^5 -1.0×10^6 cfu/mL
The solutions were evaluated based on the performance requirement referred to as the "Stand-Alone Procedure for Disinfecting Products" (hereafter the "stand-alone test") and is based on the Disinfection Efficacy Testing for contact lens care products under the Draft Premarket Notification (510(k)) Guidance Document For Contact Lens Care Products dated Apr. 1, 1996, prepared by the U.S. Food and Drug Administration, Division of Ophthalmic Devices. […]

With CCCCC(CC)CNC(=N)NC(=N)NCCCCCCNC(=N)NC(=N)NCC(CC)CCCC.Cl.Cl (stereo not shown) [Alexidine.2HCl, 1,1 '-hexamethylenebis(5-(2-ethylhexyl)-biguanide) dihydrochloride] the “Log Reduction” value (4.0 ppm, Ex. 8, different batch aged 19 months at 25 °C, 15 min, dihydrochloride) was less than 1 log, the log reduction at 4 ppm (ATCC10231, 2.5 min, 4.0 ppm, aged 18 months, Exp. 1, 2.5 min, read-out: Log Reduction) was 0 and the log reduction at 4 ppm (ATCC10231, 2.5 min, 4.0 ppm, aged 18 months, Exp. 2, 2.5 min, read-out: Log Reduction) was 0.1. It also gave a log reduction at 4 ppm (ATCC10231, 2.5 min, 4.0 ppm, aged 18 months, Exp. 3, 2.5 min, read-out: Log Reduction) of 0, a log reduction at 4 ppm (ATCC10231, 5 min, 4.0 ppm, aged 18 months, Exp. 1, 5.0 min, read-out: Log Reduction) of 0 and a log reduction at 4 ppm (ATCC10231, 5 min, 4.0 ppm, aged 18 months, Exp. 2, 5.0 min, read-out: Log Reduction) of 0.1. The log reduction at 4 ppm (ATCC10231, 5 min, 4.0 ppm, aged 18 months, Exp. 3, 5.0 min, read-out: Log Reduction) was 0, the log reduction at 4 ppm (ATCC10231, 0.125 h, 4.0 ppm, aged 18 months, Exp. 1, 7.5 min, read-out: Log Reduction) was 0.6 and the log reduction at 4 ppm (ATCC10231, 0.125 h, 4.0 ppm, aged 18 months, Exp. 2, 7.5 min, read-out: Log Reduction) was 0.5. The log reduction at 4 ppm (ATCC10231, 0.125 h, 4.0 ppm, aged 18 months, Exp. 3, 7.5 min, read-out: Log Reduction) was 0.4, the log reduction at 4 ppm (ATCC10231, 10 min, 4.0 ppm, aged 18 months, Exp. 1, 10.0 min, read-out: Log Reduction) was 0.7 and the log reduction at 4 ppm (ATCC10231, 10 min, 4.0 ppm, aged 18 months, Exp. 2, 10.0 min, read-out: Log Reduction) was 0.6. For the same compound, the log reduction at 4 ppm (ATCC10231, 10 min, 4.0 ppm, aged 18 months, Exp. 3, 10.0 min, read-out: Log Reduction) was 0.4, the log reduction at 4 ppm (ATCC10231, 0.25 h, 4.0 ppm, Ex. 6, aged 19 months at 25 °C, 15 min) was 1.9 and the log reduction at 4 ppm (ATCC10231, 0.25 h, 4.0 ppm, Ex. 7, different lot aged 18 months, 15 min, read-out: Log Reduction) was 1. The log reduction at 4 ppm (ATCC10231, 0.25 h, 4.0 ppm, Ex. 8, different batch aged 19 months at 25 °C, 15 min, read-out: Log Reduction) was 0.9, the log reduction at 4 ppm (ATCC10231, 0.5 h, 4.0 ppm, Ex. 6, aged 19 months at 25 °C, 30 min, read-out: Log Reduction) was 2.5 and the log reduction at 4 ppm (ATCC10231, 0.5 h, 4.0 ppm, Ex. 7, different lot aged 18 months, 30 min, read-out: Log Reduction) was 1.7. The log reduction at 4 ppm (ATCC10231, 0.5 h, 4.0 ppm, Ex. 8, different batch aged 19 months at 25 °C, 30 min, read-out: Log Reduction) was 1.7, the log reduction at 4 ppm (ATCC10231, 40 min, 4.0 ppm, aged 18 months, Exp. 1, 40.0 min, read-out: Log Reduction) was 2.1 and the log reduction at 4 ppm (ATCC10231, 40 min, 4.0 ppm, aged 18 months, Exp. 2, 40.0 min, read-out: Log Reduction) was 1. For the same compound, the log reduction at 4 ppm (ATCC10231, 40 min, 4.0 ppm, aged 18 months, Exp. 3, 40.0 min, read-out: Log Reduction) was 1, the log reduction at 4 ppm (ATCC10231, 0.75 h, 4.0 ppm, Ex. 6, aged 19 months at 25 °C, 45 min) was 2.7 and the log reduction at 4 ppm (ATCC10231, 0.75 h, 4.0 ppm, Ex. 7, different lot aged 18 months, 45 min, read-out: Log Reduction) was 1.9. It also gave a log reduction at 4 ppm (ATCC10231, 0.75 h, 4.0 ppm, Ex. 8, different batch aged 19 months at 25 °C, 45 min) of 1.8, a log reduction at 4 µg/mL (ATCC10231, 1 h, 1 hr) of 2.9 and a log reduction at 4 ppm (ATCC10231, 1 h, 4.0 ppm, Ex. 6, aged 19 months at 25 °C, 60 min, read-out: Log Reduction) of 2.8. The log reduction at 4 ppm (ATCC10231, 1 h, 4.0 ppm, Ex. 7, different lot aged 18 months, 60 min, read-out: Log Reduction) was 2.1, the log reduction at 4 ppm (ATCC10231, 1 h, 4.0 ppm, Ex. 8, different batch aged 19 months at 25 °C, 60 min, read-out: Log Reduction) was 1.9 and the log reduction at 4 µg/mL (ATCC10231, 2 h, 2 hr) was 4.3. The log reduction at 4 µg/mL (ATCC10231, 3 h, 3 hr) was greater than 4.7, the log reduction at 4 µg/mL (ATCC10231, 4 h, 4 hr) was 3.9 and the log reduction at 4 ppm (ATCC10231, 4 h, 4.0 ppm, Ex. 6, aged 19 months at 25 °C, 4 h, read-out: Log Reduction) was 3.4. For the same compound, the log reduction at 4 ppm (ATCC10231, 4 h, 4.0 ppm, Ex. 7, different lot aged 18 months, 4 hrs) was 3.1, the log reduction at 4 ppm (ATCC10231, 4 h, 4.0 ppm, Ex. 8, different batch aged 19 months at 25 °C, 4 hrs, read-out: Log Reduction) was 2.6 and the log reduction at 4 µg/mL (ATCC10231, 24 h, 24 hr) was 4.6. For the same compound, the “Log Reduction C. albicans” value (alexidine 0.5 ppm, 5 min) was 0.3 log, the “Log Reduction C. albicans” value (alexidine 0.5 ppm, 15 min) was 1.0 log and the “Log Reduction C. albicans” value (alexidine 0.5 ppm, 30 min) was -0.2 log. For the same compound, the “Log Reduction C. albicans” value (alexidine 0.5 ppm, 60 min) was -0.1 log, the “Log Reduction C. albicans” value (alexidine 2.6 ppm, 5 min) was 0.4 log and the “Log Reduction C. albicans” value (alexidine 2.6 ppm, 15 min) was 0.5 log. The “Log Reduction C. albicans” value (alexidine 2.6 ppm, 30 min) was 0.5 log.
